Measured values taken from patent US10670605B2, “Cysteine reactive probes and uses thereof” (The Scripps Research Institute, priority 2015, dated 2020).
Structures can show the parent of a compound that is named as a salt.

Experiments:
[1] = system: intracellular GSH in primary human T cells; experiment: Quantification of cellular glutathione (GSH) levels; type: cell-based; settings: DMF 50 μM 2 h; BSO 2.5 mM 4 h
Description: Primary human T cells (2.5 million cells/mL, 20 mL per condition) were treated as indicated, harvested by centrifugation (500 g, 8 min, 4° C.), and washed twice with PBS. To the cell pellet was added 75 μL of lysis buffer. […] Protein concentrations were adjusted to at least 5 mg/mL and the assay performed according to manufacturer's instructions (Sigma-Aldrich, CS 1020). Data represent mean±SE for two biological replicates.

primary human T cells [2] = experiment: IL-2 release (ELISA), anti-CD3 + anti-CD28 stimulated T cells; type: cell-based; settings: anti-CD3, anti-CD28 stimulation, 8 h
Description: 96-well plates were coated with anti-CD3 (1:200; BioXcell) and anti-CD28 (1:500; 302933; BioLegend) in PBS (100 μL/well) overnight at 4° C. The plates were then washed twice with PBS and to each well was added 500,000 primary T cells in 100 μL of RPMI supplemented with 10% FBS, glutamine, and Pen-Strep. Cells were then treated with 100 μL of media containing compound at the indicated concentrations (final well volume of 200 μL). Cells were left at 37° C. in a 5% CO2 incubator for the indicated periods of time and harvested by centrifugation (500 g, 8 min, 4° C.), followed by washing with PBS. T cells were harvested and stimulated as described above. At the indicated time points, cell culture supernatants were collected and IL-2 levels were measured in clear microplates (991427; R&D Systems) according to the manufacturer's instructions (Human IL-2 DuoSet ELISA; DY202; R&D Systems). Plates were read in a Gemini SpectraMax 250 microplate reader set to 450 nm. Data represent mean±SE for four experiments per group.

[3] = system: primary mouse splenocytes; settings: wild type and Nrf2(-/-) splenocytes; cited from earlier work
primary human T cells [4] = system: primary human T cells
Description: Cells were transferred to a round bottom 96-well plate (0720095; Fisher Scientific), harvested by centrifugation (500 g, 3 min, 4° C.), washed with PBS, and stained with LIVE/DEAD fixable cell stain (L23105; ThermoFisher) according to the manufacturer's instructions. Briefly, one vial of LIVE/DEAD stain was resuspended in 50 uL of DMSO and added to 20 mL of PBS. To each well of the 96-well plate was added 200 μL of the stain, and the cells were incubated on ice for 30 min in the dark. After this time, cells were pelleted and washed once with PBS, then stained for cell surface antigens.

WAPAL C160 (Q7Z5K2) = WAPAL C160 (Q7Z5K2) (Homo sapiens, UniProt Q7Z5K2); experiment: Competitive isoTOP-ABPP in situ; type: cell-based; settings: fragment 2 at 200 μM, MDA-MB-231 cells
Sequence of WAPAL C160 (Q7Z5K2) (Q7Z5K2 whole entry, the tested form may be a part): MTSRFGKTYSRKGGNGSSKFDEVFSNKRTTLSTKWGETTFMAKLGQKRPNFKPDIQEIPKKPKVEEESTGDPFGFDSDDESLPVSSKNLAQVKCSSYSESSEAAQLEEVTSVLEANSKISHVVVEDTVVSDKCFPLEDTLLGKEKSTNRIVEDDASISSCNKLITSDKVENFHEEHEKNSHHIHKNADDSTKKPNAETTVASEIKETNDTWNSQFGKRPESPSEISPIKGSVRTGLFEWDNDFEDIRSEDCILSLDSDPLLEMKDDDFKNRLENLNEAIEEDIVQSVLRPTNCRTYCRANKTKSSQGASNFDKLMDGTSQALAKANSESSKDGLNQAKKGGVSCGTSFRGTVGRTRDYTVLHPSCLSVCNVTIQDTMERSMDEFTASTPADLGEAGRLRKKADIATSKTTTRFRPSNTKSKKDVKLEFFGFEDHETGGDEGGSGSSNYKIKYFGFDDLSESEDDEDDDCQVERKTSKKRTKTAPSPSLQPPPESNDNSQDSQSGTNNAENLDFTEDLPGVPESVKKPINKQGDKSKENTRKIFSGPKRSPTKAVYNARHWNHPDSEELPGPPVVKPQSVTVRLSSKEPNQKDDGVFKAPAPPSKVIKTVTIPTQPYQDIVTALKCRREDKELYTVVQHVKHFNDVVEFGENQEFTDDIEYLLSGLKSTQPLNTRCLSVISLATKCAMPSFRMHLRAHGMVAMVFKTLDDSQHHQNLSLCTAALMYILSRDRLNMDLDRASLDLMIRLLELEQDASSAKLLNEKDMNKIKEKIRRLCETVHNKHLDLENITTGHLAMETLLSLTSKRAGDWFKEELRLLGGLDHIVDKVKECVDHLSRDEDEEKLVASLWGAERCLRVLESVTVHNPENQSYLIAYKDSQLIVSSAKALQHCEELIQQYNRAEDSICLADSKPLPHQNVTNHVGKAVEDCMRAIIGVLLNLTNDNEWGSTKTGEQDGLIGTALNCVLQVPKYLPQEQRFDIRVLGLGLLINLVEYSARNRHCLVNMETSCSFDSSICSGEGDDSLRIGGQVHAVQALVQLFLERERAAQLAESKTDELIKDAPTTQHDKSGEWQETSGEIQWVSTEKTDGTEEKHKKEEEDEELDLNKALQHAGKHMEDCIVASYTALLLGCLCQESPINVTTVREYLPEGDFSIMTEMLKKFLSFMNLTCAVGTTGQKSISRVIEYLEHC

USP48 C39 (Q86UV5) = target: T1, USP48 C39 (Q86UV5) (Homo sapiens, UniProt Q86UV5); experiment: Competitive isoTOP-ABPP in situ; type: cell-based; settings: fragment 2 at 200 μM, MDA-MB-231 cells
T1 sequence (Q86UV5 1-1035): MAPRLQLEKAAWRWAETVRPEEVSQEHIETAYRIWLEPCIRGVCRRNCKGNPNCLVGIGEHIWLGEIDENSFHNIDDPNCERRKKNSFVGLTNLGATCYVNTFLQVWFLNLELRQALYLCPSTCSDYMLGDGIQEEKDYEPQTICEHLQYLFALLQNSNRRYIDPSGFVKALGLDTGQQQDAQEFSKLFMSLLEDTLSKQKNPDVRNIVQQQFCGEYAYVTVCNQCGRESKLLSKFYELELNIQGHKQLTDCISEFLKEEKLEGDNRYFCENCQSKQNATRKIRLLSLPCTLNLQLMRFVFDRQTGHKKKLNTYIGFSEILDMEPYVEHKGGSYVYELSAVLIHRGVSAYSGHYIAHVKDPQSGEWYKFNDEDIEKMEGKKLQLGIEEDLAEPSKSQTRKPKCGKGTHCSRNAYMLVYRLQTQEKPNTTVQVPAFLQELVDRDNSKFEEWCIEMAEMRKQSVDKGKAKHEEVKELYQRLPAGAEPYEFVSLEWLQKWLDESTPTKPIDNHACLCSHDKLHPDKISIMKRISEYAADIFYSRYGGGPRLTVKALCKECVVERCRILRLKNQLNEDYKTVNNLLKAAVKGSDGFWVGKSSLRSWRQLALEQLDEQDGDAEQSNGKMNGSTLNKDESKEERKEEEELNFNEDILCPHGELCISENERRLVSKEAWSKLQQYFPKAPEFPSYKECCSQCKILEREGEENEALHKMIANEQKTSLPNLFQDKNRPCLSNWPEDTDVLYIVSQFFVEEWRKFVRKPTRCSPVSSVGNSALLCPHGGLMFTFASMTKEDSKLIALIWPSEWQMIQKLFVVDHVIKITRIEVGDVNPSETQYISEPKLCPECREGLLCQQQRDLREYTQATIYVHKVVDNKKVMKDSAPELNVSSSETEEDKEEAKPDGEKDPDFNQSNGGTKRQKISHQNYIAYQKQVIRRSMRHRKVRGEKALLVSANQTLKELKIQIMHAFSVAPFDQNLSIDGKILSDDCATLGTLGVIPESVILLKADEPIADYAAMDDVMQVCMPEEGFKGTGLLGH

IMPACT C195 (Q9P2X3) = IMPACT C195 (Q9P2X3) (Homo sapiens, UniProt Q9P2X3); experiment: Competitive isoTOP-ABPP in situ; type: cell-based; settings: fragment 4 at 100 μM, MDA-MB-231 cells
Sequence of IMPACT C195 (Q9P2X3) (Q9P2X3 whole entry, the tested form may be a part): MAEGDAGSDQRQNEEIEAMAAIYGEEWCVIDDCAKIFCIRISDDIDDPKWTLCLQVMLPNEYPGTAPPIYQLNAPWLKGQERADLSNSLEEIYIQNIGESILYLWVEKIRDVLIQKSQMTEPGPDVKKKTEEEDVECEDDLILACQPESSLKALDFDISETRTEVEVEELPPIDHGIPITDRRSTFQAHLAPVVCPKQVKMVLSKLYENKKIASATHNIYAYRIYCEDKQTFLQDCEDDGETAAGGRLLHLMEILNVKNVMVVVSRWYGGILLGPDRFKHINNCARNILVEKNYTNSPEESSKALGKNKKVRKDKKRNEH

NIT1 C165 (Q86X76) = NIT1 C165 (Q86X76) (Homo sapiens, UniProt Q86X76); experiment: Competitive isoTOP-ABPP in situ; type: cell-based; settings: fragment 4 at 100 μM, MDA-MB-231 cells
Sequence of NIT1 C165 (Q86X76) (Q86X76 14-327): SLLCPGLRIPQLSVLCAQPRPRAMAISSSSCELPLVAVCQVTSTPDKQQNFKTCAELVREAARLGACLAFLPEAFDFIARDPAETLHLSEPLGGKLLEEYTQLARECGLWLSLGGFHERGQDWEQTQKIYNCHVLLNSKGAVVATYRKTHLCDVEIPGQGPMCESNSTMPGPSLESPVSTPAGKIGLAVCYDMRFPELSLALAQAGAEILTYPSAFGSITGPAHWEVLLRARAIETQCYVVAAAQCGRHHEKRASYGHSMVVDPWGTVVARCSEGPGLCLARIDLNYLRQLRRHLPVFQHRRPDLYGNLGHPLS

[5] = target: cysteines in MDA-MB-231 and Ramos cells (Homo sapiens, UniProt Q5T1V6); experiment: Competitive isoTOP-ABPP in situ (fragment-treated cells); type: cell-based; settings: 200 μM, insitu, 231
Sequence of cysteines in MDA-MB-231 and Ramos cells (Homo sapiens, UniProt Q5T1V6) (Q5T1V6 whole entry, the tested form may be a part): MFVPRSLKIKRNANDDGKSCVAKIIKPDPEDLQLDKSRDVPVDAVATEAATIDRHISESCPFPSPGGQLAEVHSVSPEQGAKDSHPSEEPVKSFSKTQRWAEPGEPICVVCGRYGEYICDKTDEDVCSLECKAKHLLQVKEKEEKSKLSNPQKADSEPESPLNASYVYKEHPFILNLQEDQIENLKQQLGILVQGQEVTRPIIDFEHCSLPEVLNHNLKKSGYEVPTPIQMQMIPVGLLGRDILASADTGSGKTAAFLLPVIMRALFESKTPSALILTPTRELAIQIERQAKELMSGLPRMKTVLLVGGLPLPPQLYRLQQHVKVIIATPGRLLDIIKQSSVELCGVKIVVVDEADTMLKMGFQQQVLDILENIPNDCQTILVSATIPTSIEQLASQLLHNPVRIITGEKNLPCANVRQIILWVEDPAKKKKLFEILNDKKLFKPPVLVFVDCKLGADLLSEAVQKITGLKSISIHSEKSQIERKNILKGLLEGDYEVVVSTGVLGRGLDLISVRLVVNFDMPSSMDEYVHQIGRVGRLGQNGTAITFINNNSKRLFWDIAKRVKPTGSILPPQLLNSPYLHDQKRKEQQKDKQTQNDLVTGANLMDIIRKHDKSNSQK

[6] = target: cysteines in MDA-MB-231 and Ramos cells (Homo sapiens, UniProt Q13867); experiment: as above; type: cell-based; settings: 200 μM, insitu, 231
[7] = target: cysteines in MDA-MB-231 and Ramos cells (Homo sapiens, UniProt Q8IV53); experiment: as above; type: cell-based; settings: 200 μM, insitu, ramos
[8] = target: cysteines in MDA-MB-231 and Ramos cells (Homo sapiens, UniProt Q9P0K7); experiment: as above; type: cell-based; settings: 100 μM in situ 231
[9] = target: cysteines in MDA-MB-231 and Ramos cells (Homo sapiens, UniProt P53992); experiment: as above; type: cell-based; settings: 200 μM, insitu, 231
Sequence of cysteines in MDA-MB-231 and Ramos cells (Homo sapiens, UniProt P53992) (P53992 whole entry): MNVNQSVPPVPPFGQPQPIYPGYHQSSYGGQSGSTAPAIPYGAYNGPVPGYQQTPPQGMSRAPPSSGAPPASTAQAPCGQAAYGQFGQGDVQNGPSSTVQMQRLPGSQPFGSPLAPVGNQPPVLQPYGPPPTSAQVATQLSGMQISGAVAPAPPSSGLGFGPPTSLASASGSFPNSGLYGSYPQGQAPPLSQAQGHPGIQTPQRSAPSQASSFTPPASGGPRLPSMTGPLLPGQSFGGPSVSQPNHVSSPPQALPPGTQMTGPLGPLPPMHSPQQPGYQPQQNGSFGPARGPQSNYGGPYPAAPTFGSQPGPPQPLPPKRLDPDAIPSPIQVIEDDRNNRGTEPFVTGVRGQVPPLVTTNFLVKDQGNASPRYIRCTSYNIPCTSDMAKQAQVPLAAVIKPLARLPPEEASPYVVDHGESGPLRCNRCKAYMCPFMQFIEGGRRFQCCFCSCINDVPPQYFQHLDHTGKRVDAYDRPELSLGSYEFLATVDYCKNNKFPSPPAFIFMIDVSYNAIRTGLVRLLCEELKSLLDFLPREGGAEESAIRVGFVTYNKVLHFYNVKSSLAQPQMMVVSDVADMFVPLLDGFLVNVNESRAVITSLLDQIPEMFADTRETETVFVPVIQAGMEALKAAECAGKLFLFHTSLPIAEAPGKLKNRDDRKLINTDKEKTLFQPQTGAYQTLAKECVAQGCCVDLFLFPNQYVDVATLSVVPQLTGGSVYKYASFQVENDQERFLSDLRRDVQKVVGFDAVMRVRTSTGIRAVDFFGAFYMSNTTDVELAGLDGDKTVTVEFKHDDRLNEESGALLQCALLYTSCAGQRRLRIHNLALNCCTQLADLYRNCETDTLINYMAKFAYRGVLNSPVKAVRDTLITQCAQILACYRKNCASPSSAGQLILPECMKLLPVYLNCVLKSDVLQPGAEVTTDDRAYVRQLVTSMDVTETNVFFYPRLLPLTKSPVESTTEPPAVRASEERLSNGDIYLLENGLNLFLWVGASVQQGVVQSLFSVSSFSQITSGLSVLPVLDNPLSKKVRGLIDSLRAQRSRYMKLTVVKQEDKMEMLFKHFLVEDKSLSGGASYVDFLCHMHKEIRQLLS

[10] = target: cysteines in MDA-MB-231 and Ramos cells (Homo sapiens, UniProt Q9UHQ1); experiment: as above; type: cell-based; settings: 200 μM, insitu, ramos
Sequence of cysteines in MDA-MB-231 and Ramos cells (Homo sapiens, UniProt Q9UHQ1) (Q9UHQ1 whole entry, the tested form may be a part): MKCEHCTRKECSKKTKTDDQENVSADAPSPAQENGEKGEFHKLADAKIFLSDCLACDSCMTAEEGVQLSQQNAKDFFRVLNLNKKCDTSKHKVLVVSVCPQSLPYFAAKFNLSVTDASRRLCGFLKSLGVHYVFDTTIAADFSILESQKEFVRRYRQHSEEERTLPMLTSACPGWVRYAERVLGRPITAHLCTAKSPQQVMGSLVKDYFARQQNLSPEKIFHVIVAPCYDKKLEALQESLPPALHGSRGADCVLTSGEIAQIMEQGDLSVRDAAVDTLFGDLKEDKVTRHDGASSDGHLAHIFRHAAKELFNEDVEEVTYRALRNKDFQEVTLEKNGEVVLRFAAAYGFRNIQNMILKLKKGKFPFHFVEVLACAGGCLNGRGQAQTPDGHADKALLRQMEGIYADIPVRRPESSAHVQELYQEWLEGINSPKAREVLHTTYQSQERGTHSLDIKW

[11] = target: cysteines in MDA-MB-231 and Ramos cells (Homo sapiens, UniProt Q96IV0); experiment: as above; type: cell-based; settings: cysteine Q96IV0_C309; fragment 200 μM, in situ, ramos cells
Sequence of cysteines in MDA-MB-231 and Ramos cells (Homo sapiens, UniProt Q96IV0) (Q96IV0 whole entry, the tested form may be a part): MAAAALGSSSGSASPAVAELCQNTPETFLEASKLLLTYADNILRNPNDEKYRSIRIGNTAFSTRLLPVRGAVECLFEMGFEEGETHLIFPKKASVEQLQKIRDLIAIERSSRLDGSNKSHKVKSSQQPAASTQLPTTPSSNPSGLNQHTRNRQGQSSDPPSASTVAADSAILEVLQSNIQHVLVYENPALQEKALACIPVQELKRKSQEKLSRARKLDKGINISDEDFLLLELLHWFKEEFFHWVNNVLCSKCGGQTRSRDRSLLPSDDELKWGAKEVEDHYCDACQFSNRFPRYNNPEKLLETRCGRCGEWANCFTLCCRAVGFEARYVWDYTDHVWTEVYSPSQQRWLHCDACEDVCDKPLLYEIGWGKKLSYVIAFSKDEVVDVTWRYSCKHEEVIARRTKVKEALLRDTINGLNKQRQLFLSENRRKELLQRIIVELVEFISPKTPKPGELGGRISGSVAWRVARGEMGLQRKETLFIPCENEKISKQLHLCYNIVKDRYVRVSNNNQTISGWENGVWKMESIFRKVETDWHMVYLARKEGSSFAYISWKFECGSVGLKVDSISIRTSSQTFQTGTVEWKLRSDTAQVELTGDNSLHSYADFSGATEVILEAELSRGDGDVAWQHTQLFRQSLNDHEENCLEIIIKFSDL

[12] = target: cysteines in MDA-MB-231 and Ramos cells (Homo sapiens, UniProt Q86UV5); experiment: as above; type: cell-based; settings: 200 μM, insitu, ramos

Which “cellular GSH content” value [1] does the source give for COC(=O)/C=C/C(=O)OC [DMF, dimethyl fumarate] here?
The value was “significant decrease”.

And the “secretion of IL-2” value (primary human T cells [2])?
The value was “strongly inhibited”.

And the pro-inflammatory cytokine release [3]?
Its pro-inflammatory cytokine release is “inhibits”.

And the T cell viability (primary human T cells [4])?
The T cell viability was “did not impair”.

Which results are given for COc1ccc2c(c1)CCCN2C(=O)CCl [compound 2]?
isoTOP-ABPP reactivity profile (ratio) 2_200 μM_in-situ_231 (WAPAL C160 (Q7Z5K2)): 20.0; isoTOP-ABPP reactivity profile (ratio) 2_200 μM_in-situ_231 (USP48 C39 (Q86UV5)): 20.0

Which “isoTOP-ABPP reactivity profile (ratio) 4_100 μM_in-situ_231” value (IMPACT C195 (Q9P2X3)) does the source give for COc1ccc(C2CC(c3cccs3)=NN2C(=O)CCl)cc1 (stereo not shown) [compound 4] here?
The value was 20.0.

And the “isoTOP-ABPP reactivity profile (ratio) 4_100 μM_in-situ_231” value (NIT1 C165 (Q86X76))?
The value was 0.9.

Which “isoTOP-ABPP ratio, cysteine Q5T1V6_C414” value [5] does the source give for O=C(CCl)N1CCN(S(=O)(=O)c2ccccc2F)CC1 [compound 10] here?
Its value is 11.3.

And the “isoTOP-ABPP ratio, cysteine Q13867_C73” value [6]?
The value was 4.2.

And the “isoTOP-ABPP ratio, cysteine Q8IV53_C174” value [7]?
Its value is 5.0.

For Cn1cc(S(=O)(=O)N2CCOCC2)cc1C(=O)NC(=O)CCl [compound 11], which “isoTOP-ABPP ratio, cysteine Q9P0K7_C973” value [8] is on record?
Its value is 0.8.

Which results are given for O=C(CCl)NCCc1c[nH]c2ccccc12 [compound 13]?
isoTOP-ABPP ratio, cysteine P53992_C78 [9]: 0.7; isoTOP-ABPP ratio, cysteine Q9UHQ1_C99 [10]: 20.0

Which “reactivity profile of liganded cysteine Q96IV0_C309 with fragment electrophile (isoTOP-ABPP ratio)” value [11] does the source give for O=C(CCl)N1CCN(CC(=O)N2CCOCC2)CC1 [compound 29] here?
The value was 3.0.

For C=CC(=O)N(Cc1cccnc1)c1cc(C(F)(F)F)cc(C(F)(F)F)c1 [compound 31], which “isoTOP-ABPP ratio, Q86UV5_C39” value [12] is on record?
The value was 1.3.
